These results are taken from patent publication US20190183952A1, “METHODS FOR PREPARING ACTIVE EXTRACT AND APPLICATION THEREOF” (BEIJING BOXIN NATURE BIOTECH LTD., priority 2016, published 2019).

In assay [1] the test system is androgen-sensitive human prostate cancer cell line, LNCaP. Nature of the assay: XTT cell proliferation assay, LNCaP. The assay is classed as cell-based. How it is done:
(§1) Cell Proliferation Assays (FIGS. 7, 8, 16, and 17):
(§2) Human androgen-sensitive prostate cancer cell line, LNCaP, and androgen-insensitive prostate cancer cell line, PC-3 were cultured in RPMI-1640 medium supplemented with 2 mM L-glutamine and 10% fetal bovine serum (FBS). For proliferation assays LNCaP and PC-3 cells were seeded at 15,000 cells/well density in 24-well plates with complete medium (with 10% FBS). Cells were let to attach for 20 h and then, the culture medium was exchanged for fresh serum-free medium containing the respective treatments (androgens and test compounds). Viable cells content in each well was determined 72 h afterwards.
(§3) Proliferation was determined by the XTT cell viability assay (Cell Proliferation Kit II (XTT), Sigma-Aldrich, St. Louis, Mo., USA). This is a colorimetric assay that analyzes the number of viable cells by the cleavage of tetrazolium salts added to the culture medium. The cleavage product of tetrazolium salt XTT, in contrast to MTT, is soluble in water. The tetrazolium salt XTT is cleaved to formazan by a complex cellular mechanism. This bioreduction occurs in viable cells only. […] After this incubation period, the amount of formazan dye formed was quantitated using a plate reader. The measured absorbance at 490 nm directly correlates to the number of viable cells.
For orientation: Tetrazolium dyes change colour on reduction, which living cells bring about.

For assay [2], the system named is androgen-independent human prostate cancer cell line, PC-3. Nature of the assay: XTT cell proliferation assay, PC-3. It is filed as cell-based. Conditions: lycopene 0.1 and 0.25 mg/ml. How it is done: as §1, §2, §3
Assay [3] deals with prostatic specific antigen (PSA) production by LNCaP. Put plainly: Androgen-stimulated PSA production (ELISA) in LNCaP cells. It is filed as cell-based, human. Conditions: testosterone or dihydrotestosterone (40 nM), 24 h; lycopene 0.1 and 0.25 mg/ml. How it is done: Prostatic-Specific Antigen (PSA) Determinations (FIGS. 9 and 18):
For this purpose, LNCaP cells were seeded at 25,000 cells/well in 24-well plates and let to grow in complete medium (10% FBS) at 80% confluence, approximately, that is typically achieved after 48 h. The culture medium was then exchanged for fresh serum-free medium containing the respective treatments (androgens and/or NtB and/or lycopene). Conditioned media was collected 24 h afterwards and PSA concentrations were determined by using a colorimetric ELISA kit following manufacturer's instructions (Ray Biotech, Norcross, Ga., USA).
(An ELISA detects its analyte on a solid surface through an enzyme-linked reagent.)

The test system of assay [4] is human prostate strips from patients with BPH/LUTS. Put plainly: Organ bath, norepinephrine-contracted human prostate strips. How it is done: (§4) Organ Bath Experiments with Human Prostate and Bladder Tissues (FIGS. 10, 12, 19, and 20):
(§5) Specimens of human prostate and bladder neck were obtained from patients undergoing suprapubic adenomectomy (Millin's approach) for benign prostatic hyperplasia (BPH). […]
(§6) Human prostate and bladder neck specimens were cleaned of fat and connective tissue and cut into strips for organ bath assays. […] Tissues were subsequently exposed to 125 mM K^+ (equimolar substitution of […] in KHS) and contractile response was measured to check functionality. The relaxant effect induced by increasing doses of the NtB extract or the vehicle (distilled water) was evaluated in human prostate and bladder neck strips precontracted with 3-10 μM norepinephrine (NE) (80% of K^+-induced contraction, approximately) (FIG. 10). Relaxations of human prostate and bladder neck induced by PDES inhibition were evaluated by adding increasing concentrations of tadalafil (1 nM to 100 μM) on strips precontracted with NE and previously treated with NtB (10 mg/ml) or vehicle (distilled water) (FIG. 12). […] Concentration-response (relaxation) curves to lycopene (0.025 to 0.5 mg/ml) were also determined after NE-induced contraction in human bladder neck (FIG. 20A).

Assay [5] relates to human bladder neck strips from patients with BPH/LUTS. Nature of the assay: Organ bath, norepinephrine-contracted human bladder neck strips. How it is done: as §4, §5, §6

With `CC(C)=CCC/C(C)=C/C=C/C(C)=C/C=C/C(C)=C/C=C/C=C(C)/C=C/C=C(C)/C=C/C=C(\C)CCC=C(C)C` [lycopene], in assay [1] (lycopene 0.25 mg/ml, T or DHT 40 nM), the “testosterone- or dihydrotestosterone-induced increase in proliferation of LNCaP cells” value was “effectively reversed”. In assay [1] (lycopene 0.1 and 0.25 mg/ml), the “proliferation of LNCaP cells in the absence of androgen stimulation” value is “did not significantly influence proliferation”. In assay [2], the “proliferation of PC-3 cells in the absence of androgen stimulation” value is given as “did not significantly influence proliferation”. The “proliferation of PC-3 cells in the presence of T or DHT” value in assay [2] (T or DHT 40 nM) is on record as “failed to significantly reduce proliferation”. Further, the “androgen-stimulated PSA production in LNCaP cells” value in assay [3] was “prevented”. Further, the “relaxation (reversion of NE-induced contraction) of human prostate strips” value in assay [4] was “could have relaxant activity by itself”. Further, in assay [5], the “relaxation (reversion of NE-induced contraction) of human bladder neck strips” value is “could have relaxant activity by itself”.
